From patent publication US9303061B2, “Spiro compounds as Hepatitis C virus inhibitors” (Sunshine Luke Pharma Co., Ltd., priority 2011, dated 2016) come the findings set out here.

pEC50: −log10 of the molar value.

In assay [1] the test system is HCV GT1b replicon cells. The experiment in a line: HCV replicon assay, GT1b replicon cells (luciferase reporter / NEO gene qPCR). The note with it: EC50 range against HCV 1b genotype, 72 hours incubation. The class given is cell-based. On the procedure: (§1) An HCV Replicon assay was utilized in the present disclosure, and was prepared, developed and validated as described in Science, 1999, 285 (5424), 110-3 and J. Virol., 2003, 77 (5), 3007-19.
(§2) HCV GT1a, GT1b and GT2a replicon cells were used to test the currently described compound series as well as wild-type cells HCV 1b and resistant cells Y93H, L31F, P32L and 1302V. GT1a, GT1b and GT2a are HCV Replicon System which is transfected HCV 1a, 1b, 2a genotype respectively. The system containing G418 resistance gene NEO and Luciferase Reporter Gene can be used to determine the level of HCV replication, and evaluate the effects of the compounds inhibiting HCV replication, by using a real-time quantitative polymerase chain reaction (qPCR) method to detect NEO, and chemiluminescence method to test Luciferase Reporter Gene.
(§3) 1. Testing EC50 of the Compounds by Luciferase Assay
(§4) The GT1a cells and GT1b cells were seeded into 96-well plates (8,000 cells in 125 μl/well) respectively; each compound was diluted to desired concentration using 5-fold serial dilutions protocol, 10 dose in duplicate, and added to wells with POD™ 810 Plate Assembler. The final concentration of DMSO was 0.5%; the plates were incubated in a CO2 incubator for 72 hours; after that, 40 μl of Luciferase assay substrate (Promega Bright-Glo) was added to each well, and detected by a chemiluminescence detection system (Topcount Microplate Scintillation and Luminescence Counter) 5 minutes later; data analysis.
(§5) 2. Testing EC50 of the Compounds by Detecting Antibiotic G418 Resistance Gene NEO Gene
(§6) The GT1a cells and GT1b cells were seeded into 96-well plates (8,000 cells in 125 μl/well) respectively; each compound was diluted to desired concentration using 5-fold serial dilutions protocol, 10 dose in duplicate, and added to wells with POD™ 810 Plate Assembler, the final concentration of DMSO was 0.5%; the cells were incubated in a CO2 incubator for 72 hours; quantitative PCR. • Sample preparation: the supernatant was removed, 100 μl of FCW buffer solution was added to each well, washed carefully and discarded the solution; 50 μl of lysate FCP was added to each well, the cells was lysed as PCR template and PCR template was diluted with DEPC water as sample template. • Quantitative PCR: preparation of reaction mixture according to PCR system; the reaction mixture was dispensed into a 384-well PCR reaction plate (specially for quantitative); and a standard template which was diluted in proportion was distributed into the plate; and the sample template was distributed into the plate; then the 384-well plate was sealed with closure plate membrane; the […] PCR machine was operated by procedures; data analysis.
(§7) 3. Data processing: EC50 values of compounds were analyzed by GRAPHPAD PRISM® software.
In general terms: In antiviral work, replicon cells carry a viral genome segment that copies itself.

The subject of assay [2] is HCV GT1a replicon cells. The experiment in a line: HCV replicon assay, GT1a replicon cells (luciferase reporter / NEO gene qPCR). Type of assay: cell-based. Conditions: Hepatitis C virus, GT1A, EC50 range against HCV 1a genotype, 72 hours incubation. The procedure: as §1, §2, §3, §4, §5, §6, §7

One may read the pEC50 as the negative decadic logarithm of the EC50, by convention in mol/L. Low readings indicate a high EC50, high ones a low EC50. As to `COC(=O)N[C@H](C(=O)N1CCC[C@H]1c1nc(-c2ccc(-c3ccc(-c4ccc(-c5cnc([C@@H]6CCCN6C(=O)[C@@H](NC(=O)OC)C(C)C)[nH]5)cc4)c4c3C(=O)C3(CCCC3)C4)cc2)c[nH]1)C(C)C` [Example 1], the pEC50 in assay [1] (Hepatitis C virus, GT1B, 72 h) is 8.00 to 9.00; in assay [2] it was 10.00 to 12.00.
Consider `COC(=O)N[C@H](C(=O)N1CCC[C@H]1c1ncc(C#Cc2ccc(C#Cc3cnc([C@@H]4CCCN4C(=O)[C@@H](NC(=O)OC)C(C)C)[nH]3)c3c2CC2(CCCC2)C3=O)[nH]1)C(C)C` [Example 2], for which the negative logarithm of the EC50 (pEC50) in assay [1] (Hepatitis C virus, GT1B, 72 h) was less than 8.00; in assay [2] it was 9.00 to 10.00.
For `COC(=O)N[C@H](C(=O)N1CCC[C@H]1c1nc2ccc(-c3ccc(-c4ccc5nc([C@@H]6CCCN6C(=O)[C@@H](NC(=O)OC)C(C)C)[nH]c5c4)c4c3CC3(CCC(C)CC3)C4=O)cc2[nH]1)C(C)C` (some centres unmarked) [Example 3] the same measures were 10.00 to 12.00 and 10.00 to 12.00.
The matching figures for `COC(=O)N[C@H](C(=O)N1CCC[C@H]1c1nc2ccc(-c3ccc(-c4ccc5nc([C@@H]6CCCN6C(=O)[C@@H](NC(=O)OC)C(C)C)[nH]c5c4)c4c3CC3(CCC(C)CC3)C4)cc2[nH]1)C(C)C` [Example 4]: 10.00 to 12.00 and 10.00 to 12.00.
For `COC(=O)N[C@H](C(=O)N1CCC[C@H]1c1nc2ccc(-c3ccc(-c4ccc5nc([C@@H]6CCCN6C(=O)[C@@H](NC(=O)OC)C(C)C)[nH]c5c4)c4c3CC3(CCCCC3)C4=O)cc2[nH]1)C(C)C` [Example 5] the same measures were 9.00 to 10.00 and 10.00 to 12.00.
`COC(=O)N[C@H](C(=O)N1CCC[C@H]1c1nc2ccc(-c3ccc(-c4ccc5nc([C@@H]6CCCN6C(=O)[C@@H](NC(=O)OC)C(C)C)[nH]c5c4)c4c3CC3(CCCCC3)C4)cc2[nH]1)C(C)C` [Example 6]: the pEC50 in assay [1] (Hepatitis C virus, GT1B, 72 h) was 10.00 to 12.00; in assay [2], 10.00 to 12.00.
Consider `COC(=O)N[C@H](C(=O)N1CCC[C@H]1c1ncc(C#Cc2ccc(C#Cc3cnc([C@@H]4CCCN4C(=O)[C@@H](NC(=O)OC)C(C)C)[nH]3)c3c2CC2(CCCC2)C3)[nH]1)C(C)C` [Example 8], for which the pEC50 is 8.00 to 9.00 in assay [1] (Hepatitis C virus, GT1B, 72 h) and 10.00 to 12.00 in assay [2].
For `CCC(C)[C@H](NC(=O)OC)C(=O)N1CCC[C@H]1c1nc2ccc(-c3ccc(-c4ccc(-c5cnc([C@@H]6CCCN6C(=O)[C@@H](NC(=O)OC)C(C)C)[nH]5)cc4)c4c3CC3(CCCC3)C4)cc2[nH]1` (some centres unmarked) [Example 11] the same measures were 10.00 to 12.00 and 10.00 to 12.00.
For the compound `COC(=O)N[C@H](C(=O)N1CCC[C@H]1c1ncc(-c2ccc(-c3ccc(-c4cnc([C@@H]5CCCN5C(=O)[C@@H](NC(=O)OC)C(C)C)[nH]4)c4c3CC3(CCCC3)C4)cc2)[nH]1)C(C)C` [Example 14], the pEC50 is less than 8.00 in assay [1] (Hepatitis C virus, GT1B, 72 h) and 10.00 to 12.00 in assay [2].
The matching figures for `COC(=O)N[C@H](C(=O)N1CC(F)(F)C[C@H]1c1ncc(-c2ccc(-c3ccc(-c4cnc([C@@H]5CC(F)(F)CN5C(=O)[C@@H](NC(=O)OC)C(C)C)[nH]4)c4c3CC3(CCCC3)C4)cc2)[nH]1)C(C)C` [Example 15]: less than 8.00 and 10.00 to 12.00.
For `COC(=O)N[C@H](C(=O)N1CCC[C@H]1c1ncc(-c2ccc(-c3ccc(-c4cnc([C@@H]5CCCN5C(=O)[C@@H](NC(=O)OC)c5ccccc5)[nH]4)c4c3CC3(CCCC3)C4)cc2)[nH]1)c1ccccc1` [Example 16] the same measures were less than 8.00 and 10.00 to 12.00.
For `COC(=O)N[C@H](C(=O)N1CCC[C@H]1c1ncc(-c2ccc(-c3ccc(-c4cnc([C@@H]5CCCN5C(=O)[C@@H](NC(=O)OC)C(C)C)[nH]4)c4c3CC3(CCCC3)C4)s2)[nH]1)C(C)C` [Example 17] the same measures were less than 8.00 and 9.00 to 10.00.
For the compound `COC(=O)N[C@H](C(=O)N1C[C@@H](C)C[C@H]1c1ncc(-c2ccc(-c3ccc(-c4cnc([C@@H]5C[C@H](C)CN5C(=O)[C@@H](NC(=O)OC)C(C)C)[nH]4)c4c3CC3(CCCCC3)C4)cc2)[nH]1)C(C)C` [Example 18], the values for the pEC50 in assay [1] and in assay [2] were less than 8.00 and 10.00 to 12.00, respectively.
